Data as given in the NIST ThermoML archive (doi:10.1016/j.fluid.2018.10.006).

Details: Fluid (supercritical or subcritical phases), Coaxial cylinder method

CCCCCC [hexane]
Details | thermal conductivity [W/m/K]
511.55 K, 5000 kPa | 0.07163
511.55 K, 5100 kPa | 0.07163
511.55 K, 5300 kPa | 0.07217
511.55 K, 5500 kPa | 0.0724
511.55 K, 5800 kPa | 0.07283
511.55 K, 6000 kPa | 0.07313
511.55 K, 6200 kPa | 0.07344
511.55 K, 6400 kPa | 0.07374
511.55 K, 6600 kPa | 0.07406
511.55 K, 6800 kPa | 0.07437
511.55 K, 6900 kPa | 0.07456
511.55 K, 7100 kPa | 0.07481
511.55 K, 7200 kPa | 0.07501
511.55 K, 7300 kPa | 0.07513
511.55 K, 7500 kPa | 0.07618
511.55 K, 7800 kPa | 0.07658
511.55 K, 8000 kPa | 0.07685
511.55 K, 8200 kPa | 0.07712
511.55 K, 8300 kPa | 0.07719
511.55 K, 8400 kPa | 0.07733
511.55 K, 8500 kPa | 0.07746
511.55 K, 8600 kPa | 0.0776
511.55 K, 8700 kPa | 0.07767
511.55 K, 9000 kPa | 0.07803
511.55 K, 9100 kPa | 0.07815
511.55 K, 9200 kPa | 0.07822
511.55 K, 9300 kPa | 0.07828
511.55 K, 9400 kPa | 0.07837
511.55 K, 9700 kPa | 0.0787
511.55 K, 10000 kPa | 0.07902
511.79 K, 1600 kPa | 0.03961
511.79 K, 1800 kPa | 0.04006
511.79 K, 1900 kPa | 0.04052
511.79 K, 2000 kPa | 0.041
511.79 K, 2090 kPa | 0.04133
511.79 K, 2100 kPa | 0.04148
511.79 K, 2110 kPa | 0.04151
511.79 K, 2200 kPa | 0.04198
511.79 K, 2300 kPa | 0.0427
511.79 K, 2400 kPa | 0.04354
511.79 K, 2500 kPa | 0.04428
511.79 K, 2600 kPa | 0.04543
511.79 K, 2700 kPa | 0.04664
511.79 K, 2800 kPa | 0.04819
511.79 K, 2817 kPa | 0.04857
511.79 K, 2911 kPa | 0.05076
511.79 K, 2958 kPa | 0.052
511.79 K, 2987 kPa | 0.05281
511.79 K, 3000 kPa | 0.05337
511.79 K, 3049 kPa | 0.05564
511.79 K, 3076 kPa | 0.05734
511.79 K, 3093 kPa | 0.05872
511.79 K, 3101 kPa | 0.05933
511.79 K, 3113 kPa | 0.06039
511.79 K, 3121 kPa | 0.06126
511.79 K, 3133 kPa | 0.06272
511.79 K, 3143 kPa | 0.06414
511.79 K, 3151 kPa | 0.06537
511.79 K, 3156 kPa | 0.06613
511.79 K, 3163 kPa | 0.06743
511.79 K, 3167 kPa | 0.06811
511.79 K, 3169 kPa | 0.06851
511.79 K, 3172 kPa | 0.06906
511.79 K, 3175 kPa | 0.06962
511.79 K, 3177 kPa | 0.07014
511.79 K, 3179 kPa | 0.07048
511.79 K, 3181 kPa | 0.07092
511.79 K, 3183 kPa | 0.07134
511.79 K, 3185 kPa | 0.07166
511.79 K, 3186 kPa | 0.07193
511.79 K, 3188 kPa | 0.07227
511.79 K, 3189 kPa | 0.07257
511.79 K, 3190 kPa | 0.07273
511.79 K, 3191 kPa | 0.07304
511.79 K, 3192 kPa | 0.07319
511.79 K, 3193 kPa | 0.07344
511.79 K, 3194 kPa | 0.07367
511.79 K, 3195 kPa | 0.07382
511.79 K, 3196 kPa | 0.07398
511.79 K, 3197 kPa | 0.07424
511.79 K, 3198 kPa | 0.07446
511.79 K, 3199 kPa | 0.07463
511.79 K, 3200 kPa | 0.07479
511.79 K, 3202 kPa | 0.07528
511.79 K, 3204 kPa | 0.07561
511.79 K, 3205 kPa | 0.07578
511.79 K, 3206 kPa | 0.07595
511.79 K, 3209 kPa | 0.07635
511.79 K, 3212 kPa | 0.07676
511.79 K, 3214 kPa | 0.077
511.79 K, 3216 kPa | 0.07724
511.79 K, 3219 kPa | 0.07745
511.79 K, 3221 kPa | 0.07749
511.79 K, 3223 kPa | 0.07756
511.79 K, 3226 kPa | 0.07759
511.79 K, 3231 kPa | 0.07766
511.79 K, 3234 kPa | 0.07766
511.79 K, 3236 kPa | 0.07745
511.79 K, 3237 kPa | 0.07745
511.79 K, 3240 kPa | 0.07732
511.79 K, 3243 kPa | 0.07697
511.79 K, 3246 kPa | 0.07663
511.79 K, 3247 kPa | 0.07629
511.79 K, 3251 kPa | 0.07496
511.79 K, 3253 kPa | 0.07496
511.79 K, 3256 kPa | 0.07463
511.79 K, 3257 kPa | 0.07431
511.79 K, 3264 kPa | 0.07399
511.79 K, 3265 kPa | 0.07367
511.79 K, 3269 kPa | 0.07336
511.79 K, 3270 kPa | 0.07336
511.79 K, 3276 kPa | 0.07336
511.79 K, 3278 kPa | 0.07336
511.79 K, 3280 kPa | 0.07336
511.79 K, 3285 kPa | 0.07336
511.79 K, 3291 kPa | 0.07243
511.79 K, 3293 kPa | 0.07243
511.79 K, 3295 kPa | 0.07243
511.79 K, 3300 kPa | 0.07213
511.79 K, 3301 kPa | 0.07183
511.79 K, 3306 kPa | 0.07183
511.79 K, 3310 kPa | 0.07153
511.79 K, 3313 kPa | 0.07123
511.79 K, 3315 kPa | 0.07123
511.79 K, 3319 kPa | 0.07122
511.79 K, 3321 kPa | 0.07122
511.79 K, 3325 kPa | 0.07122
511.79 K, 3327 kPa | 0.07122
511.79 K, 3330 kPa | 0.07122
511.79 K, 3332 kPa | 0.07122
511.79 K, 3335 kPa | 0.07122
511.79 K, 3340 kPa | 0.07122
511.79 K, 3346 kPa | 0.07122
511.79 K, 3350 kPa | 0.07123
511.79 K, 3353 kPa | 0.07123
511.79 K, 3355 kPa | 0.07123
511.79 K, 3360 kPa | 0.07123
511.79 K, 3365 kPa | 0.07064
511.79 K, 3367 kPa | 0.07064
511.79 K, 3368 kPa | 0.07064
511.79 K, 3370 kPa | 0.07064
511.79 K, 3375 kPa | 0.07064
511.79 K, 3380 kPa | 0.07064
511.79 K, 3385 kPa | 0.07064
511.79 K, 3390 kPa | 0.07064
511.79 K, 3395 kPa | 0.07064
511.79 K, 3400 kPa | 0.07064
511.79 K, 3410 kPa | 0.07064
511.79 K, 3420 kPa | 0.07065
511.79 K, 3440 kPa | 0.07065
511.79 K, 3460 kPa | 0.07065
511.79 K, 3500 kPa | 0.07041
511.79 K, 3600 kPa | 0.06993
511.79 K, 3657 kPa | 0.06978
511.79 K, 3700 kPa | 0.06973
511.79 K, 3750 kPa | 0.06973
511.79 K, 3800 kPa | 0.06973
511.79 K, 3850 kPa | 0.06973
511.79 K, 3900 kPa | 0.06973
511.79 K, 3950 kPa | 0.06975
511.79 K, 3980 kPa | 0.06975
511.79 K, 4000 kPa | 0.06988
511.79 K, 4030 kPa | 0.06995
511.79 K, 4100 kPa | 0.07011
